Results from patent US20110092445A1, “Amyloid ß peptide analogues, oligomers thereof, processes for preparing and composi-tions comprising said analogues or oligomers, and their uses” (Abbott Laboratories, priority 2008, published 2011).
Bridges are numbered along the chain shown (N, C = ends). Where no end group is shown, it is not given here. The star is where a group is joined. Acm = CC(=O)NC*

Key:
[1] = test system: globulomer-specific antibodies (mAb 5F7, mAb 7C6, rabbit polyclonal antiserum 5599); assay: Direct ELISA, response to globulomer-specific antibodies; format: binding; settings: for display of the globulomer epitope: oligomers before thermolysin truncation, 5F7, 7C6, antiserum 5599; for reactivity of cross-linked oligomers to the globulomer-specific antibodies: after intra-molecular cross-linking, FIGS. 14-16, 18; for change in affinity to the globulomer-specific antibodies upon truncation with thermolysin: after thermolysin truncation versus untruncated oligomer
Excerpt: (§1) Materials: Microtiterplates were Nunc Immuno Plate, Maxi-Sorb Surface, flat bottom, (Catalogue #439454). The conjugate (secondary antibody) was Donkey anti-mouse HRPO conjugate, Jackson Immuno Research, (Catalogue #715-035-150). The HRPO Substrate was 3,3′,5′5′-Tetramethylbenzidine Liquid substrate (TMB), Sigma, (Catalogue #T4444). Non-fat Dry Milk (NFDM), was from BioRad, (Catalogue #170-6404). All other chemicals were from conventional sources.
(§2) Buffers and solutions: PBST buffer: Sigma PBS made with 0.05% Tween 20. PBST with 0.5% BSA was made by dissolving […] BSA in 100 mL PBST. Blocking solution was 3% NFDM in PBST. Conjugate diluent was 1% NFDM in PBST. The coating buffer was 100 mM NaHCO3 pH8.2. The HRPO Stop Solution was 2 M H2SO4.
(§3) Coating the plates: The Aβ globulomer to be tested was diluted to 1.0 μg/mL in coating buffer. 100 μL were added to each well to be coated. Plate was sealed with sealing film and left at 4° C. overnight.
(§4) Plate Blocking: The coating solution was removed from the wells. Each well was optionally washed 2-3× with 150 μL of PBST. 300 μL of blocking solution were added (3% NFDM in PBST). Plate was covered with plate sealing film and incubated for ˜2 hrs at room temperature, with agitation.
(§5) Primary Antibody: The blocking solution was removed from the wells. Each well was optionally washed 2-3× with 150 μL of PBST. 100 μL of primary antibody solutions were added. For the full length N-Met Aβ(1-42) globulomer, solutions of 0.04 to 100 μg/mL of antibody 5F7 were used. The antibody was diluted using PBST with 0.5% BSA. The plate was covered with plate sealing film and incubated for ˜2 to 3 hrs at room temperature with agitation.
Secondary Antibody (HRPO Conjugate): The primary antibody solution was removed from the wells. Each well was washed 2-3× with 150 μL of PBST. 200 μL of secondary antibody (HRPO conjugate) solution diluted 1:5000 in PBST with 1% NFDM were added. The plate was covered with plate sealing film and incubated for ˜1 hr at room temperature with agitation.
Substrate Development: The conjugate solution was removed from the wells. Each well was washed 2-3× with 200 μL of PBST. 100 μL of HRPO substrate solution were added to each well. Color was allowed to develop under observation. It turned blue. The reaction was usually done in 5-10 minutes at room temperature. 50 μL of stop solution were added to each well. The blue color turned yellow. Absorbance at 450 nm was read using a microtiterplate reader within 30 min of addition of the stop solution.

[2] = test system: globulomer-specific monoclonal antibody 5F7; assay: Direct ELISA, binding of globulomer-specific mAb 5F7 to coated oligomer; set-up: species or system murine; settings: FIG. 3A; for binding of the globulomer-specific monoclonal antibody 5F7 (direct ELISA response): N-Met Aβ(1-42) globulomer compared with mutant oligomer
Excerpt: as §1, §2, §3, §4, §5
Secondary Antibody (HRPO Conjugate): The primary antibody solution was removed from the wells. Each well was washed 2-3× with 150 μL of PBST. 200 μL of secondary antibody (HRPO conjugate) solution diluted 1:5000 in PBST with 1% NFDM were added. […]
Substrate Development: The conjugate solution was removed from the wells. […] Absorbance at 450 nm was read using a microtiterplate reader within 30 min of addition of the stop solution.

[3] = for homogeneity of oligomers in sedimentation velocity experiments / hydrodynamic properties relative to wild-type N-Met Aβ(1-42) (truncated) globulomer: FIG. 5A-5C; for hydrodynamic homogeneity after truncation at residue 20 by thermolysin: presence (FIG. 5B) and absence (FIG. 5C) of 0.05% SDS
Description: Samples were loaded into standard two-sector cells using sapphire windows. All samples were examined using either a 4-hole or an 8-hole rotor.
Conditions were as follows: temperature: 20° C., rotor speed: 42,000 rpm, interference data was collected, absorbance data was collected at 280 nm in continuous mode with a radial step size of 0.003 cm. One data point was collected per step (no signal averaging). Typically, 200 scans or less were collected over the course of no more than 9 hrs.
A continuous S distribution analysis (C(s) analysis) was done as implemented in Sedfit v8.9 (P. Schuck (2000), “Size distribution analysis of macromolecules by sedimentation velocity ultracentrifugation and Lamm equation modeling”, Biophysical Journal 78:1606-1619) to understand the overall heterogeneity of the samples. Both radial and time independent noise were fit and removed from the data using a maximal entropy algorithm.

Row | Substance | display of the globulomer epitope [1] | change in affinity to the globulomer-specific antibodies upon truncation with thermolysin [1] | other results
1 | Disulfide-stabilized (17C, 34C) Aβ(12-42) oligomer (VHHQKCVFFAEDVGSNKGAIIGCMVGGVVIA; disulfide 6-23; also: oligomer; UniProt P05067 683-713, looked up, variant L17C L34C) [example 4k] | displayed the globulomer epitope |  | 
2 | EDC/NHS-linked (17K, 34E) N-Met Aβ(1-42) oligomer [example 4x] |  | expected increase in affinity | reactivity of cross-linked oligomers to the globulomer-specific antibodies [1]: still display the appropriate reactivity
3 | (17C(ACM), 34C(ACM)) Aβ(16-35) oligomer (KC(Acm)VFFAEDVGSNKGAIIGC(Acm)M; also: oligomer; UniProt P05067 687-706, looked up, variant L17C L34C) [3l] | not able to form oligomers that displayed the globulomer epitope |  | 
4 | Disulfide-stabilized (17C, 34C) Aβ(16-42) oligomer (KCVFFAEDVGSNKGAIIGCMVGGVVIA-OH; disulfide 2-19; also: oligomer; UniProt P05067 687-713, looked up, variant L17C L34C) [example 4s] | displayed the globulomer epitope |  | 
5 | (17K, 34E) N-Met Aβ(1-42) oligomer [example 3x] | display the globulomer epitope |  | 
6 | [(17C, 34C) Aβ(16-35)-amide, cyclic] oligomer (KCVFFAEDVGSNKGAIIGCM-NH2; disulfide 2-19; also: oligomer; UniProt P05067 687-706, looked up, variant L17C L34C) [example 4o] | displayed the globulomer epitope |  | 
7 | Thermolysin truncation of [(17C, 34C) Aβ(16-35)-amide, cyclic] oligomer [example 5o] |  | expected increase in affinity | 
8 | MBS-linked (17K, 34C) N-Met Aβ(1-42) oligomer [example 4w2] |  | expected increase in affinity | reactivity of cross-linked oligomers to the globulomer-specific antibodies [1]: still display the appropriate reactivity
9 | Aβ(16-35)-amide oligomer (KLVFFAEDVGSNKGAIIGLM-NH2; also: oligomer; UniProt P05067 687-706, looked up, fragment) [example 3m] | not able to form oligomers that displayed the globulomer epitope |  | 
10 | SIAB-linked (17K, 34C) N-Met Aβ(1-42) oligomer [example 4w3] |  | expected increase in affinity | reactivity of cross-linked oligomers to the globulomer-specific antibodies [1]: still display the appropriate reactivity
11 | Dissulfide stabilized (17C, 34C) N-Met Aβ(1-42) oligomer [example 2a] |  |  | binding of the globulomer-specific monoclonal antibody 5F7 (direct ELISA response) [2]: almost identical; display of the globulomer-specific epitope ([2]; mAb 5F7): still displays the globulomer-specific epitope; homogeneity of oligomers in sedimentation velocity experiments [3]: formed homogeneous oligomers; hydrodynamic properties relative to wild-type N-Met Aβ(1-42) (truncated) globulomer [3]: displayed better hydrodynamic properties
12 | SMCC-linked (17K, 34C) N-Met Aβ(1-42) oligomer [example 4w1] |  | expected increase in affinity | reactivity of cross-linked oligomers to the globulomer-specific antibodies [1]: still display the appropriate reactivity
13 | Thermolysin truncation of disulfide stabilized (17C, 34C) N-Met Aβ(1-42) oligomer [example 5y] |  |  | homogeneity of oligomers in sedimentation velocity experiments [3]: formed homogeneous oligomers; hydrodynamic properties relative to wild-type N-Met Aβ(1-42) (truncated) globulomer [3]: displayed better hydrodynamic properties; hydrodynamic homogeneity after truncation at residue 20 by thermolysin [3]: remains significantly more hydrodynamically homogeneous
14 | N-Met Aβ(1-42) globulomer [reference compound] |  |  | binding of the globulomer-specific monoclonal antibody 5F7 (direct ELISA response) [2]: almost identical; homogeneity of oligomers in sedimentation velocity experiments [3]: formed homogeneous oligomers; hydrodynamic homogeneity after truncation at residue 20 by thermolysin [3]: too heterogeneous to be examined
15 | Thermolysin truncation of disulfide stabilized (17C, 34C) Aβ(12-42) oligomer [example 5k] |  | expected increase in affinity | 
16 | (17K, 34C) N-Met Aβ(1-42) oligomer [example 3w] | display the globulomer epitope |  | 
17 | Thermolysin truncation of disulfide stabilized (17C, 34C) Aβ(16-42) oligomer [example 5s] |  | expected increase in affinity | 
